{
  "source": "patent US20240226107A1",
  "about": "“UBIQUITIN-SPECIFIC PROTEASE 1 (USP1) INHIBITOR” (SIMCERE ZAIMING PHARMACEUTICAL CO., LTD., priority 2021, published 2024);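 for GI50: MDA-MB-436 proliferation over 7 days with compound, viability read as ATP luminescence (CellTiter-Glo), inhibition relative to DMSO-only wells, day 0 signal as background, GI50 from four-parameter fit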",
  "key": {"CYP2D6": {"target": "CYP2D6 (Homo sapiens (Human), UniProt P10635)", "sequence (P10635 whole entry)": "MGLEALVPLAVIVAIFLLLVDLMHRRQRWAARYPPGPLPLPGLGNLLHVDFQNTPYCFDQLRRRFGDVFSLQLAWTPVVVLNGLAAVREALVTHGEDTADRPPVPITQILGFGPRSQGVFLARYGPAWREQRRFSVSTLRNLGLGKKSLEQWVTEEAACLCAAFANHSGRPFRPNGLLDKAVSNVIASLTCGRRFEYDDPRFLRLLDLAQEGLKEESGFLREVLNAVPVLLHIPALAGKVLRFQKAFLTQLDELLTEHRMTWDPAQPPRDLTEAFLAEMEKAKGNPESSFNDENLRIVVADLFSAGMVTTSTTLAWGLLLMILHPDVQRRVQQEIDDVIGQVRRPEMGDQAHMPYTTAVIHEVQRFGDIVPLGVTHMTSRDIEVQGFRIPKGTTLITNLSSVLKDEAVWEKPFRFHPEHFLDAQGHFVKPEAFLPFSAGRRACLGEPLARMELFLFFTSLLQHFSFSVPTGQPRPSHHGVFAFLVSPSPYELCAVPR", "test": "CYP enzyme inhibition in pooled human liver microsomes (bufuralol hydrochloride)", "assay_type": "in vitro ADME", "procedure": "(§1) Typical substrate metabolic responses of five major human CYP subtypes (CYP1A2, CYP2C9, CYP2C19, CYP2D6, CYP3A4) were evaluated using 150-donor pooled human liver microsomes (purchased from Corning, Cat. No.: 452117). The influence of different concentrations of each compound to be tested on metabolic responses of phenacetin (CYP1A2), diclofenac sodium (CYP2C9), S-mephenytoin (CYP2C19), bufuralol hydrochloride (CYP2D6), and midazolam (CYP3A4) was determined by liquid chromatography-mass spectrometry (LC/MS/MS). […] Then 200 μL of acetonitrile solution containing 3% formic acid and 40 nM internal standard verapamil was added and centrifuged at 4000 rpm for 50 min. The mixture was cooled on ice for 20 min and centrifuged at 4000 rpm for 20 min to precipitate the protein. Then 200 μL of supernatant was analyzed by LC-MS/MS. The peak area was calculated from the chromatogram. The residual activity ratio (%) was calculated according to the following equation: Peak area ratio=metabolite peak area/internal standard peak area Residual activity ratio (%)=peak area ratio of compounds-to-be-tested group/peak area ratio of blank group The half inhibitory concentration (IC50) for CYP was calculated by Excel XLfit 5.3.1.3."}, "CYP1A2": {"target": "CYP1A2 (Homo sapiens (Human), UniProt P05177)", "sequence (P05177 whole entry)": "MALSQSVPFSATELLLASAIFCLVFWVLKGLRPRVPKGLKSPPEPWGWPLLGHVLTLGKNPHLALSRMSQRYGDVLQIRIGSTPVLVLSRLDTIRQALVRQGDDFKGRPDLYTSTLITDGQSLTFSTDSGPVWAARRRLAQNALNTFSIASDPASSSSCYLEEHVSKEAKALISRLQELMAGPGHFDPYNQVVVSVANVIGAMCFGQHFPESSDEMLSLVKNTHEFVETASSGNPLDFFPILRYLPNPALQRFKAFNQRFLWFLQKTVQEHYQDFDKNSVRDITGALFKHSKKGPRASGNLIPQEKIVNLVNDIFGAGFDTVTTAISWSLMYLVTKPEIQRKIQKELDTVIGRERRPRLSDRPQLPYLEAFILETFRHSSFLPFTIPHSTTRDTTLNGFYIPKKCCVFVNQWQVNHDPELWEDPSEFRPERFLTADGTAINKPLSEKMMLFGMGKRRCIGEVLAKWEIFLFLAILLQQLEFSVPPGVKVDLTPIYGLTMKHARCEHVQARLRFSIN", "test": "CYP enzyme inhibition in pooled human liver microsomes (phenacetin)", "assay_type": "in vitro ADME", "procedure": "as §1"}, "CYP2C19": {"target": "CYP2C19 (Homo sapiens (Human), UniProt P33261)", "sequence (P33261 whole entry)": "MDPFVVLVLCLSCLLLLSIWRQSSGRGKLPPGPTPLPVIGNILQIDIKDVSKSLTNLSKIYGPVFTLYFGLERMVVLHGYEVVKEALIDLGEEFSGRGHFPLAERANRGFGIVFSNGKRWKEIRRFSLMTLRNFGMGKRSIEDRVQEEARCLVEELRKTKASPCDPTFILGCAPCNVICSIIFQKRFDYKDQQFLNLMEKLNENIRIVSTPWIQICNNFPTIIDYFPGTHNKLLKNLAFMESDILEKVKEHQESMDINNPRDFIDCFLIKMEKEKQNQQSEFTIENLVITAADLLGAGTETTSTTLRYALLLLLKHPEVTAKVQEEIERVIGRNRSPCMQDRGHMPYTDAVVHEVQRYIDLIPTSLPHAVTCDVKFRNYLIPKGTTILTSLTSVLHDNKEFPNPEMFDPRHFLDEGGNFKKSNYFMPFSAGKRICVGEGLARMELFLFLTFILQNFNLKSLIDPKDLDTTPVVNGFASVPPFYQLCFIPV", "test": "CYP enzyme inhibition in pooled human liver microsomes (S-mephenytoin)", "assay_type": "in vitro ADME", "procedure": "as §1"}, "CYP3A4": {"target": "CYP3A4 (Homo sapiens (Human), UniProt P08684)", "sequence (P08684 whole entry)": "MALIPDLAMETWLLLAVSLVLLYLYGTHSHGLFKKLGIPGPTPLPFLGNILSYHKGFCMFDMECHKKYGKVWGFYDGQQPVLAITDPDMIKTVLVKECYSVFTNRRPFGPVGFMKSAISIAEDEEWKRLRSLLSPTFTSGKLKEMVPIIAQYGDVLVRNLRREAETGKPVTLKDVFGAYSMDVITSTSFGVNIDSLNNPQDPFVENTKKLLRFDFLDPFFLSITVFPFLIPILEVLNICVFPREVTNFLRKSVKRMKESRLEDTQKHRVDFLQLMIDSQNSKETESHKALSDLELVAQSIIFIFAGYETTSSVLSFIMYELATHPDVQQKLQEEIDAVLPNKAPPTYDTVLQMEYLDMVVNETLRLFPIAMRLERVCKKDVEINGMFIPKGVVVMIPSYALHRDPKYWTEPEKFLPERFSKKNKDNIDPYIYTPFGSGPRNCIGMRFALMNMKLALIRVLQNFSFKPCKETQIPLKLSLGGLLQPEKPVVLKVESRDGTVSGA", "test": "CYP enzyme inhibition in pooled human liver microsomes (midazolam)", "assay_type": "in vitro ADME", "procedure": "as §1"}, "PXR": {"target": "PXR (Homo sapiens (Human), UniProt O75469)", "sequence (O75469 whole entry)": "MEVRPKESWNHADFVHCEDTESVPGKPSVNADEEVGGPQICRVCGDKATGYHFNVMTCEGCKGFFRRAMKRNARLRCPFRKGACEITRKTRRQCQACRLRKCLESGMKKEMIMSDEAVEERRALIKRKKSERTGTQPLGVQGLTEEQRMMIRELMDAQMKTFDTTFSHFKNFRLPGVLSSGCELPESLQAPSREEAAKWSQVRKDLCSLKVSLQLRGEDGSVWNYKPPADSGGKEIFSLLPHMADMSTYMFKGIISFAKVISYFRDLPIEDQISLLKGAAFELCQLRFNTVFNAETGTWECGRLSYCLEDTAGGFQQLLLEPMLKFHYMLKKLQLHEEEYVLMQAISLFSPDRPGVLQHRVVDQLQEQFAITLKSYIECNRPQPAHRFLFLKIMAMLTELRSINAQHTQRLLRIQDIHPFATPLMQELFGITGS", "test": "Potential for PXR activation in DPX2 cells", "assay_type": "cell-based", "details": "10 μM, versus 20 μM rifampicin", "procedure": "DMSO solutions of the compounds to be tested and the control compound rifampicin solution were prepared, and diluted with Puracyp dosing medium (Puracyp, Cat. No: D-500-100) at 37° C. to respective test concentrations. The final concentrations of the compounds to be tested were 30 μM, 10 μM, and 1 μM, respectively, and the final concentration of rifampicin was 20 μM. The final concentration of DMSO in the test solution was 0.1%. In addition, 0.1% DMSO solution prepared with Puracyp dosing medium was used as a control.\nDPX2 cells were suspended in Puracyp Culture medium (Puracyp, Cat No.: C-500-100) at a cell density of 4.5×10^5 cell/mL. Then, the suspension was placed on a 96-well culture plate at 100 μL/well for incubation at 37° C. for 24 h. The medium in appropriate wells of the 96-well culture plate was replaced (three times per well) by 100 μL of solution of the compounds to be tested and a control compound solution. After replacement, the plate was incubated at 37° C. for 24 h. The medium was then replaced (three times per well) by a newly prepared test solution of the compounds to be tested and a rifampicin test solution, and the plate was incubated at 37° C. for 24 h.\nThe medium in the 96-well culture plate was pipetted and washed twice with PBS. To each well, 50 μL of reagent diluted as required by CellTiter-Fluor™ Cell Viability Assay Kit (Promega, Cat. No.: G6082) was added, and incubated at 37° C. for 0.5 h. The 96-well plate was cooled to room temperature, and the fluorescence value of each well at 505 nm was measured in a fluorescence mode with a microplate reader at an excitation wavelength of 400 nm. Then, 50 μL of reagent prepared as required by One-Glo Luciferase Assay System (Promega, Cat. No.: E6120) was added to each well, and the mixture was incubated at room temperature for 5 min. The luminescence value of each well was read by using a lumen meter.\nNormalized luciferase activity was determined by RLU/RFU, and the RLU and RFU of the samples were mean values of duplicate wells, respectively.\n[formula] • Fold of activation: fold of activation of normalized luciferase; • RLUtest: measured luminescence value of test wells at each test dose of test compounds; • RLUvehicle: measured luminescence value of test wells when tested with the control DMSO solution; • RFUtest: measured fluorescence value of test wells at each test dose of test compounds; • RFUvehicle: measured fluorescence value of test wells when tested with the control DMSO solution.\nThe percentage of positive control was calculated as follows:\n% Positive control=(fold activationtest compound−1)/(fold activationpositive control compound−1)×100% • % Positive control: percentage of PXR activation compared with 20 μM rifampicin activation at each test dose of test compounds; • Fold activationtest compound: fold of activation of normalized luciferase at each test dose of test compounds; • Fold activationpositive control compound: fold of activation of normalized luciferase of test compounds under 20 μM rifampicin."}, "[1]": {"target": "USP1 (Recombinant Human His6-USP1/His6-UAF1 Complex Protein) (Homo sapiens (Human), UniProt O94782)", "sequence (O94782 whole entry)": "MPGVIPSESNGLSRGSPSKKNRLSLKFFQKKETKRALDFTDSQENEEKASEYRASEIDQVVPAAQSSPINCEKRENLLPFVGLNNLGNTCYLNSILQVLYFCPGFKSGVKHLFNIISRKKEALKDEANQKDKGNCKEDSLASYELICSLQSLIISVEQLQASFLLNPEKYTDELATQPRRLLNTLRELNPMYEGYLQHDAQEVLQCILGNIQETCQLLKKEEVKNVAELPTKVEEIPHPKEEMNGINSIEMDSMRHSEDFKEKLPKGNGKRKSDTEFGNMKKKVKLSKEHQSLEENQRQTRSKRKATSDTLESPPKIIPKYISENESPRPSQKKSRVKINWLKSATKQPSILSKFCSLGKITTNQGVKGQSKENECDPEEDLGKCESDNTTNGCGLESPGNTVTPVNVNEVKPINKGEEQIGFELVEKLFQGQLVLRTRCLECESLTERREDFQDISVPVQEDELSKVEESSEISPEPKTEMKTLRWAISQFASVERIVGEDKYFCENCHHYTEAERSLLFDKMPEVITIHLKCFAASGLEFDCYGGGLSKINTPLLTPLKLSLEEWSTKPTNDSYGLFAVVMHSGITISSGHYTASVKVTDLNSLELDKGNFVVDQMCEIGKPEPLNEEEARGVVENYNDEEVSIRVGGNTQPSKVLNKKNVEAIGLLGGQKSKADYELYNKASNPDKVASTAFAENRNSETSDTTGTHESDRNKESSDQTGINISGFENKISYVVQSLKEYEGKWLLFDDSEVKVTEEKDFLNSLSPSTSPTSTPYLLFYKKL", "sequence (Q8TAF3 whole entry partner)": "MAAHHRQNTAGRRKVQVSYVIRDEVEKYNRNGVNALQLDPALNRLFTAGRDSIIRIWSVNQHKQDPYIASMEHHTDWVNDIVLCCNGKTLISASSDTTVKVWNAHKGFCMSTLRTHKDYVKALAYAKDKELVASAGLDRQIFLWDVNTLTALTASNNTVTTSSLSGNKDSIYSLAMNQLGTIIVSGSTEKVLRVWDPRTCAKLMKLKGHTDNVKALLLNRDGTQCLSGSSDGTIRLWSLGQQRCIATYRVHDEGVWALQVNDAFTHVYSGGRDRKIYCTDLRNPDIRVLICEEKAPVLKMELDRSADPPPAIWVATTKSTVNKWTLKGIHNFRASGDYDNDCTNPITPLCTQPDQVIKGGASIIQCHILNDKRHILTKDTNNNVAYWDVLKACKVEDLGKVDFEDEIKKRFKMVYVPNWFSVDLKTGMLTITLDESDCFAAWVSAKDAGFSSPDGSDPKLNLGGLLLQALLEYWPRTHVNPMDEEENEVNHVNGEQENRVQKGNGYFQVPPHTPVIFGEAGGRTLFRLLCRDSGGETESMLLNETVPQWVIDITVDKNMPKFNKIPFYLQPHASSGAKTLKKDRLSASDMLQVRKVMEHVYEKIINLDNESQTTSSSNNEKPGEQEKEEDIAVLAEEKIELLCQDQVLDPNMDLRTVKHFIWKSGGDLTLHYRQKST", "test": "In vitro activity assay for USP1 (Ub-CHOP2-Reporter deubiquitination assay)", "assay_type": "biochemical", "details": "0.5 h incubation at room temperature, read-out: In vitro inhibitory activity of USP1 IC50", "how_it_was_run": "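His6-USP1/His6-UAF1 complex was mixed with compound in 20 mM Tris-HCl pH 8.0, 2 mM CaCl2, 2 mM β-mercaptoethanol and 0.05% CHAPS. Ub-CHOP2 reporter system plus substrate was added, then incubated 0.5 h at room temperature. IC50 came from a four-parameter logistic fit.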"}, "CYP2C9": {"target": "CYP2C9 (Homo sapiens (Human), UniProt P11712)", "sequence (P11712 whole entry)": "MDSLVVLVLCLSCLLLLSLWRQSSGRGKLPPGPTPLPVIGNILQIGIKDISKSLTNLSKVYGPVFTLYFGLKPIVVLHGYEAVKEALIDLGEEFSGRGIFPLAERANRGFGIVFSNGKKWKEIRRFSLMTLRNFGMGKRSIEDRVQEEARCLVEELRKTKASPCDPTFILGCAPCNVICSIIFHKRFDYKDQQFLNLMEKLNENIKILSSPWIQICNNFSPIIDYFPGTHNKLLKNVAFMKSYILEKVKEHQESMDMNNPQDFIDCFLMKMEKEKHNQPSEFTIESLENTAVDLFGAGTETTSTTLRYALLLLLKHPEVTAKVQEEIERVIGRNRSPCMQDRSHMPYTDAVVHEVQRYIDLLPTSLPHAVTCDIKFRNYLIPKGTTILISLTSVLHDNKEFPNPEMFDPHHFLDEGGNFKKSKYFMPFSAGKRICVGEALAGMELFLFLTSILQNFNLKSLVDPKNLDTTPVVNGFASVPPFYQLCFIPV", "test": "CYP enzyme inhibition in pooled human liver microsomes (diclofenac sodium)", "assay_type": "in vitro ADME", "procedure": "as §1"}},
  "data": [
    {"compound": "COc1ncnc(C2CC2)c1-c1ncc2c(n1)N(Cc1ccc(-n3nc(C(F)(F)F)cc3C)cc1)C(=O)OC2(C)C", "note": "[Compound 74, 7-(4-cyclopropyl-6-methoxypyrimidin-5-yl)-4,4-dimethyl-1-(4-(5-methyl-3-(trifluoromethyl)-1H-pyrazol-1-yl)benzyl)-1,4-dihydro-2H-pyrimido[4,5-d][1,3]oxazin-2-one]", "values": [
      {"measurement": "IC50", "setting": "CYP2D6", "result": "> 30", "unit": "µM"},
      {"measurement": "GI50", "setting": "MDA-MB-436 cells", "result": 0.0307, "unit": "µM"},
      {"measurement": "IC50", "setting": "CYP1A2", "result": "> 30", "unit": "µM"},
      {"measurement": "IC50", "setting": "CYP2C19", "result": 10.2, "unit": "µM"},
      {"measurement": "IC50", "setting": "CYP3A4", "result": "> 30", "unit": "µM"},
      {"measurement": "PXR activation (% Positive control)", "setting": "PXR", "result": 13.2, "unit": "% Positive control"},
      {"measurement": "IC50", "setting": "[1]", "result": 0.0173, "unit": "µM"},
      {"measurement": "IC50", "setting": "CYP2C9", "result": 4.5, "unit": "µM"}
    ]}
  ]
}
